How the values were obtained:
rat [1] = experiment: rat oral LD50 (acute toxicity); type: in vivo; conditions: relative to soil termiticide fipronil
rat [2] = conditions: cited from earlier work

| Compound | fold less toxic than fipronil (rat oral LD50) (rat [1]) [fold] | rat oral LD50 (rat [2]) |
| --- | --- | --- |
| O=C(NC(=O)c1c(F)cccc1F)Nc1cc(Cl)c(OC(F)(F)C(F)C(F)(F)F)c(Cl)c1F (stereo not drawn) [noviflumuron] | 32 | > 3,160 mg/kg |
| N#Cc1nn(-c2c(Cl)cc(C(F)(F)F)cc2Cl)c(N)c1[S+]([O-])C(F)(F)F (stereo not drawn) [fipronil] |  | 97 mg/kg |

Reference: patent US12419296B2, “Remote detection of pre-determined termite feeding activities in soil” (University of Florida Research Foundation, Inc., priority 2019, dated 2025)
